For one assay, the system named is HA-tagged Smad1. The experiment in a line: BMP-induced Smad1 degradation in transfected COS cells (Western, anti-HA). The class given is cell-based. Conditions: 100 ng BMP 4 hours, 50-100 μM LLF. How it is done: HA-tagged Smad1 expression vector was transfected into COS cells. The transfected cells were then treated with 100 ng BMP for 4 hours in the absence or presence of 50-100 μM of the proteasome inhibitor Leu-Leu-Phe (LLF). The cells were lysed and equal amount of protein was loaded in each lane. Western analysis was performed using anti-HA antibody (BAbCo, Berkeley, Calif.).

Another assay has as its system Smad1. The experiment in a line: In vivo ubiquitination of Smad1 in transfected COS cells (immunoprecipitation, Western). The class given is cell-based. Conditions: COS cells treated with LLF, with or without BMP. On the procedure: To assess the in vivo ubiquitination of Smad1, a Smad1 expression vector was transfected into COS cells. The transfected cells were treated with BMP and the proteasome inhibitor LLF, as described above. The cells were then lysed and equal amounts of protein were used for immunoprecipitation using anti-HA antibody, to precipitate tagged-Smad1 protein. The immunoprecipitated Smad1 was run on SDS-PAGE, followed by a Western blot using anti-HA antibody or anti-ubiquitin antibody (BAbCo).

A further assay relates to WWP1 WW domains. In words: TRF binding assay of biotinylated PY motif peptides to GST-WW domain fusions. Conditions: for Interaction with WWP1 WW domains (TRF, peptide titration): GST-WW domains coated at 30 μg/mL overnight. How it is done: Each domain was individually expressed as a GST fusion protein. A TRF binding assay was used to evaluate interactions of PY motif peptides with these domains or GST alone. WW domains were bound to a 96-well polystyrene assay plate (Costar) overnight at 4° C. in a 200 mM carbonate buffer (Pierce, Rockford, Ill.) at different concentrations (0, 1, 3, 10 μg/mL). Unbound WW domain was washed away with distilled, deionized water and the plates were blocked with 1% BSA/carbonate buffer for 2 hours at room temperature. The plates were then washed with Tris/TWEEN® buffer: 50 mM Tris pH 7.5, 100 mM NaCl, 1 mM EDTA, 1% BSA, 1 mM DTT, 0.1% TWEEN® 20 detergent, protease inhibitor cocktail (Boehringer-Mannheim).
PY motif peptides were synthesized with a C6-linker and biotin tag.
These biotinylated peptides were solvated in Tris/TWEEN® buffer and added to the assay plates (30 μM). The plates were incubated at 4° C. for varying amounts of capture time. The plates were then washed with PBS/0.1% TRITON® X-100 detergent and probed for 1 hour at room temperature with 1 μg/mL Europium-labeled streptavidin (DELFIA; Wallac Oy, Turku, Finland) in DELFIA Assay Buffer/0.1% Triton X100. The unbound Europium-labeled streptavidin was washed with PBS/0.1% TRITON® X-100 detergent. Europium was released for time-resolved fluorescence measurements with the DELFIA Enhancement Buffer. Measurements were made on either the DELFIA 1234 or Victor fluorometers.
Smad PY motif peptides from Smad 1, 2, 3, 5, 6 and 7 (Table 1) were then evaluated with the WW domains from WWP1 (FIGS. 6A-6D and 7A-7B). The GST-WW domain fusion proteins and GST alone were coated at 30 μg/mL overnight. After blocking the wells with BSA, the WW domain peptides were titrated with the Smad PY motif peptides.

In assay [1] the test system is E1 and E2s (ubc5c and ubc7). The experiment in a line: Coupled ubiquitin assay, ubiquitination of active site cysteines of E1 and E2. The class given is biochemical. Conditions: 20 mM DTT. On the procedure:
Recombinant E1 (ubc5c) and E2 (ubc7) components were obtained from BostonBiochem (Cambridge, Mass.). Radiolabeled ubiquitin was generated by PKA-mediated incorporation of [^32P]-phosphate from […] to the PKA site of the GST-Ub fusion protein (pGEX KG expression vector). The ubiquitin assay buffer (UbB) was as follows: 50 mM Tris pH 7.6, 1 mM ATP, 0.2 mM EDTA, 5 mM MgCl2, 1 unit inorganic pyrophosphatase, 0.005% TRITON® X-100 detergent and 1 μM staurosporine. In a 0.030 mL reaction, the following components were present: 50-200 ng E1, 0.1-1 μg E2 and 5 μg GST-Ub. […] Reactions were analyzed by SDS-PAGE. The ubiquitination of active site cysteine residues of E1 and E2s (ubc Sc and ubc 7) was observed (FIGS. 9A-9C).

Where a SMILES comes first, the peptide text is derived from it. Where no end group is shown, it is not given here. The star is where a group is joined. Biotin = O=C1N[C@H]2[C@H](CS[C@H]2CCCCC(=O)*)N1; Ahx = NCCCCCC(=O)O

Results on eight compounds are retold here after patent publication US7358056B1, “Methods for modulating signal transduction mediated by TGF-β and related proteins” (Signal Pharmaceuticals, priority 1999, dated 2008).

`CC(C)C[C@H](NC(=O)[C@@H](N)CC(C)C)C(=O)N[C@@H](Cc1ccccc1)C(=O)O` [LLF, Leu-Leu-Phe] (H-Leu-Leu-Phe-OH): the “Effect on BMP-induced Smad1 degradation” value in the assay on HA-tagged Smad1 is given as “blocks BMP-induced Smad1 degradation”. Further, the “Accumulation of high molecular weight ubiquitinated Smad1” value with Smad1 is reported as “accumulated more high molecular weight, ubiquitinated-Smad1 protein”.

In the case of “GPESPPPPYSRLSP (SEQ ID NO:21) (also: biotinylated) [Smad 6, biotinylated Smad6 PY motif peptide]”, in the assay on WWP1 WW domains, the “Interaction with WWP1 WW domains (TRF, peptide titration)” value (“Interaction with WWP1 WW domains” below) is recorded as “measurable interactions”.

Take “{Biotin-Ahx}-PADTPPPAYLPPED-NH2 (SEQ ID NO:22) [Smad 1]”: the “Interaction with WWP1 WW domains” value with WWP1 WW domains is “no measurable interaction”.

Take “PADTPPPAYMPPDD (SEQ ID NO:23) (also: biotinylated) [Smad 5, biotinylated Smad5 PY motif peptide]”: in the assay on WWP1 WW domains, the “Interaction with WWP1 WW domains” value is “measurable interactions”.

Turning to “{Biotin-Ahx}-HPGTPPPPYTVGPG-NH2 (SEQ ID NO:28) [WBP1, reference compound]”, the “Binding to WWP1 WW domains (TRF)” value in the assay with WWP1 WW domains (peptide 30 μM, WW domains coated at 0, 1, 3, 10 μg/mL, GST alone as control) is reported as “bound specifically”.

Take `O[C@@H](CS)[C@@H](O)CS` [DTT]: in assay [1], the “Formation of thioester intermediates (ubiquitinated E1 and E2)” value was “prevented the formation of the thioester intermediates”.

With “IPETPPPGYISEDG (SEQ ID NO:24) (also: biotinylated) [Smad 2, biotinylated Smad2 PY motif peptide]”, the “Interaction with WWP1 WW domains” value with WWP1 WW domains is recorded as “no measurable interaction”.

For the compound “AGLTPPPGYLSEDG (SEQ ID NO:25) (also: biotinylated) [Smad 3, biotinylated Smad3 PY motif peptide]”, the “Interaction with WWP1 WW domains” value with WWP1 WW domains is recorded as “no measurable interaction”.
